Reference: patent publication US20240207213A1, “METHODS AND COMPOSITIONS FOR TREATING DISORDERS WITH ORAL SYSTEMICALLY BIOAVAILABLE BUTYRATE CONJUGATES” (THE UNIVERSITY OF CHICAGO, priority 2021, published 2024)
Entries after “also recorded” stand apart in the source; their conditions may differ. Where two headings read alike, the source gives them in different places.

Assays:
[1] = Biodistribution of butyrate after oral gavage (LC-MS/MS quantification in plasma and organs); type: in vivo, C57BL/6J mice; conditions: for butyrate level in the liver / butyrate level in the mesenteric LNs: 3 hr and 6 hr post oral administration; for butyrate level in the spleen: 3 hr post oral administration
Method: The specific-pathogen-free (SPF) female C57BL/6J mice were orally administered with 50.4 mg NaBut, 80 mg SerBut, 85.6 mg ThrBut (all containing equivalent 40 mg butyrate), or PBS. At 0.5 hr or 3 hr post administration, blood was collected by cheek bleeding. At 3 hr or 6 hr post administration, the mice were anesthetized under isoflurane and transcardially perfused with at least 30 ml phosphate-buffered saline (PBS) containing 1 mM EDTA. Organs including liver, mesenteric lymph nodes (mLNs), brain, spinal cord, and spleen were collected and frozen in dry ice immediately, and then transfer to −80° C. until further processing.
1:1 v/v acetonitrile (ACN) to water was used to extract butyrate from the plasma or organs. Plasma was mixed 1:1 with ACN/water solution, and then centrifuged to remove the denatured proteins. Organs were weighed and transferred to Lysing Matrix D tubes, and added with ACN/water 1:1 v/v solution followed by sample lysing using FastPrep-24 5G homogenizer (MP Biomedicals). The samples were then centrifuged, and the supernatant were collected for the measuring of butyrate.
Samples were prepared and derivatized as describe in the literature (5, 6). 3-nitrophenylhydrazine (NPH) stock solution was prepared at 0.02 M in water:acetonitrile 1:1 v/v. EDC stock solution (with 1% pyridine added) was prepared at 0.25 M in water:acetonitrile 1:1 v/v. 4-methylvaleric acid was added as internal standard. Samples were mixed with NPH stock and EDC stock at 1:1:1 ratio by volume. The mixture was heated by heating block at 60° C. for 30 min. Samples were then filtered through […] and transferred into HPLC vials and stored at 4° C. before analysis.
The Agilent 6460 Triple Quad MS-MS was used to detect the derivatized butyrate.
Both derivatized butyrate-NPH and 4-methylvaleric-NPH were detected in negative mode. Column: ThermoScientific C18 4.6×50 mm, […], at room temperature. Mobile phase A: water with 0.1% v/v formic acid. Mobile phase B: acetonitrile with 0.1% v/v formic acid. Injection volume: 5.0 μL. Flow rate: 0.5 mL/min. Gradient of solvent: 15% mobile phase B at 0.0 min; 100% mobile phase B at 3.5 min; 100% mobile phase B at 6.0 min; 15% mobile phase B at 6.5 min. The MS conditions were optimized on pure butyrate-NPH or 4-methylvaleric-NPH at 1 mM. The fragment voltage was 135 V and collision energy was set to 18 V. Multiple reaction monitoring (MRM) of 222→137 was assigned to butyrate, and MRM of 250→137 was assigned to 4-methylvaleric acid as internal standard. The ratio between MRM of butyrate and 4-methylvaleric acid was used to quantify the concentration of butyrate. The final butyrate content is each organ is normalized by the organ weight.

[2] = Water solubility (statement); type: physicochemical
[3] = tested on: experimental autoimmune encephalomyelitis (EAE); type: in vivo, C57BL/6 mice; conditions: for Th17 cells (RORγt+% of CD4+ T cells) in the spinal cord: day 20, compared to the PBS group
Text: C57BL/6 female mice (8 weeks old) were purchased from Charles River Laboratories and housed in the animal facility at the University of Chicago for 2 weeks before immunization. All experiments were approved by the Institutional Animal Care and Use Committee of the University of Chicago
Female C57BL/6 mice at the age of week 10 were subcutaneously immunized at the dorsal flanks with an emulsion of MOG35-55 in complete Freund's adjuvant (MOG35-55/CFA Emulsion, Hooke Laboratories) on day 0, followed by i.p. administration of pertussis toxin in PBS on both day 0 and day 1. The mice were treated with PBS or serine butyrate (0.6 mg/g per dose) twice daily from day 2 to day 19. Another group of mice were treated with PBS once (in the morning) and serine butyrate (0.6 mg/g) once (in the afternoon) daily. The development of EAE was monitored and clinical scores were measured daily from day 7 to day 20. The clinical scores were determined based on the Hooke Laboratories scoring criteria (found online at hookelabs.com/services/cro/eae/MouseEAEscoring.html). In brief, EAE clinical scores ranged from a score of 0, corresponding to no obvious changes in motor function compared to non-immunized mice, to a score of 4, corresponding to limp tail and minimal or no movement of hind and/or fore limbs. On day 20, mice from the twice daily PBS or serine butyrate gavage groups were sacrificed. Their blood was collected through cardiac puncture, and spleen, spinal cord, mesenteric lymph nodes (LNs), central nervous system(CNS)-draining LNs (dLNs, including cervical LNs and iliac LNs) were harvested for the immunostaining followed by the flow cytometry analysis. The major cytokines from the plasma and spinal cord after homogenization were analyzed by the LegendPlex (BioLegend).

[4] = 0.5 hr and 3 hr after oral administration (both time points)
[5] = oral, compared to mice treated with NaBut and ThrBut (PBS and sodium butyrate)
[6] = day 20, flow cytometry, twice daily vs PBS
[7] = day 20, flow cytometry, twice daily vs PBS, listed as Serine butyrate
[8] = day 20, flow cytometry, twice daily vs PBS, listed as serine butyrate

SMILES: CCCC(=O)OC(C)[C@H](N)C(=O)O (stereo in doubt) [ThrBut, O-butyryl L-threonine]
- butyrate level in the plasma [1, 4]: did not show high level of butyrate
- butyrate level in the liver [1]: high level of butyrate
- butyrate level in the mesenteric LNs [1]: high level of butyrate; also recorded: higher accumulation
- butyrate level in the spleen [1]: higher level of butyrate; also recorded: higher accumulation
- water solubility [2]: water soluble

SMILES: CCCC(=O)[O-].[Na+] [NaBut, sodium butyrate, reference compound]
- butyrate level in the plasma [1, 4]: did not show high level of butyrate

SMILES: CCCC(=O)OC[C@H](N)C(=O)O [SerBut, O-butyryl L-serine]
- butyrate level in the plasma ([1]; 0.5 hr after oral administration, equivalent 40 mg butyrate): dramatically increased
- butyrate level in the plasma ([1]; 3 hr after oral administration, equivalent 40 mg butyrate): dropped significantly
- butyrate level in the liver [1]: high level of butyrate
- butyrate level in the mesenteric LNs [1]: high level of butyrate; also recorded: higher accumulation
- butyrate level in the spleen [1]: higher level of butyrate; also recorded: higher accumulation
- butyrate level in brain [1, 5]: significantly enhanced; also recorded: significantly increased
- butyrate level in spinal cord [1, 5]: significantly enhanced; also recorded: significantly increased
- water solubility [2]: water soluble
- severity of EAE disease development (clinical score) ([3]; 0.6 mg/g per dose oral, twice daily day 2-19, vs PBS, listed as Serine butyrate): attenuates
- dose regimen comparison in EAE: twice daily vs single daily dose ([3]; 0.6 mg/g twice daily vs once daily): performed better than a single dose
- body weight loss ([3]; EAE mice treated orally): did not observe a significant body weight loss
- MHCII expression (gMFI) on dendritic cells and macrophages in the mesenteric LNs ([3]; day 20, compared to PBS-treated mice): significantly lower
- Th17 cells (RORγt+% of CD4+ T cells) in the spinal cord ([3]; listed as Serine butyrate): reduced
- Th17 cells (RORγt+% of CD4+ T cells) in the spinal cord ([3]; listed as serine butyrate): less Th17 cells
- CD80+% and CD86+% of CD11c hi dendritic cells in the spinal cord [3, 6]: significant reduction
- cell surface MHCII expression in CD11c hi dendritic cells and CD11b+CD11c- monocytes, spinal cord [3, 6]: similarly marked reduction
- MHCII positive dendritic cells and macrophages in the mesenteric LNs [3, 7]: suppresses
- immune cell infiltration into the spinal cord (CD11b+, CD11b+CD11c-, F4/80+CD11b+ cells) [3, 7]: inhibits
- MHCII positive dendritic cells and macrophages in the mesenteric LNs [3, 8]: significant reduction
- immune cell infiltration into the spinal cord (CD11b+, CD11b+CD11c-, F4/80+CD11b+ cells) [3, 8]: significantly suppressed
- IFNγ in the spinal cord ([3]; day 20, homogenate supernatant normalized by total protein): minimal IFNγ
- Foxp3+CD8+ Tregs in the mesenteric LNs ([3]; day 20, twice daily vs PBS): significant induction
- regulatory T cells in the spleen (Foxp3+ or Foxp3+CD25+ of CD4+ T cells) ([3]; day 20, twice daily vs PBS): significantly increased
- EAE clinical score of the majority of mice ([3]; twice daily 0.6 mg/g, score scale 0-4): below 1.0

SMILES: CCCC(=O)Oc1ccc(C[C@H](N)C(=O)O)cc1 [TyrBut, O-butyryl L-tyrosine]
- water solubility [2]: not highly soluble
